Test results from paper PMC3626541, “A first in human, safety, pharmacokinetics, and clinical activity phase I study of once weekly administration of the Hsp90 inhibitor ganetespib (STA-9090) in patients with solid malignancies” (BMC Cancer, 2013).

Test system: patients with advanced solid tumors
Assay: Safety: adverse events (NCI CTCAE v3.0), ECG
Format: in vivo, human
Experimental: Patients’ demographics and medical history were recorded at baseline. Physical examination and PS were assessed at baseline and on Day 1 of each cycle. Adverse events (AEs), vital signs, hematology and chemistry values, and creatinine clearance were assessed at baseline and weekly during treatment. Toxicity was graded using National Cancer Institute Common Terminology Criteria for Adverse Events (NCI CTCAE), version 3.0. An electrocardiogram (ECG) was performed at baseline, before and after treatment on Days 1 and 15 of Cycles 1 and 2, and on Day 15 of even-numbered cycles thereafter. CT scans were done at baseline and every 8 weeks thereafter. Tumor response was assessed using Response Evaluation Criteria in Solid Tumors (RECIST, v1.0), with confirmation of responses performed at least 4 weeks later.

[1] = Cycle 1 Day 1 post-dose, patients with QTc prolongation
[2] = repeat ECG later on the same day

CC(C)c1cc(-c2n[nH]c(=O)n2-c2ccc3c(ccn3C)c2)c(O)cc1O [Ganetespib, 5-[2,4-dihydroxy-5-(1 methyl-ethyl)phenyl]-2,4 dihydro-4-(1-methyl-1H indol-5 yl)-3H-1,2,4 triazole-3-one]
Dizziness, AE of any grade, Number (%) of patients (All patients, n = 53): 6 (11.3) n (%) | Dry mouth, AE of any grade, Number (%) of patients (All patients, n = 53): 6 (11.3) n (%) | Dyspnea, AE of any grade, Number (%) of patients (All patients, n = 53): 9 (17) n (%) | Extremity pain, AE of any grade, Number (%) of patients (All patients, n = 53): 6 (11.3) n (%) | Fatigue, AE of any grade, Number (%) of patients (All patients, n = 53): 30 (56.6) n (%) | Fatigue, CTCAE Grade 3 and 4 AE, Number (%) of patients (All patients, n = 53): 6 (11.3) n (%) | Headache, AE of any grade, Number (%) of patients (All patients, n = 53): 9 (17) n (%) | Hyperbilirubinemia, CTCAE Grade 3 and 4 AE, Number (%) of patients (All patients, n = 53): 3 (5.7) n (%) | Hypokalemia, AE of any grade, Number (%) of patients (All patients, n = 53): 7 (13.2) n (%) | Hypokalemia, CTCAE Grade 3 and 4 AE, Number (%) of patients (All patients, n = 53): 2 (3.8) n (%) | Hyponatremia, CTCAE Grade 3 and 4 AE, Number (%) of patients (All patients, n = 53): 3 (5.7) n (%) | Hypophosphatemia, AE of any grade, Number (%) of patients (All patients, n = 53): 7 (13.2) n (%) | Hypophosphatemia, CTCAE Grade 3 and 4 AE, Number (%) of patients (All patients, n = 53): 4 (7.5) n (%) | Insomnia, AE of any grade, Number (%) of patients (All patients, n = 53): 10 (18.9) n (%) | Musculoskeletal chest pain, AE of any grade, Number (%) of patients (All patients, n = 53): 6 (11.3) n (%) | Nausea, AE of any grade, Number (%) of patients (All patients, n = 53): 18 (34) n (%) | Peripheral edema, AE of any grade, Number (%) of patients (All patients, n = 53): 9 (17) n (%) | Pneumonia, serious adverse events, Number (%) of patients (All patients, n = 53): 2 (3.8) n (%) | Rash, AE of any grade, Number (%) of patients (All patients, n = 53): 6 (11.3) n (%) | Serum amylase elevated, CTCAE Grade 3 and 4 AE, Number (%) of patients (All patients, n = 53): 2 (3.8) n (%) | Spinal cord compression, CTCAE Grade 3 and 4 AE, Number (%) of patients (All patients, n = 53): 2 (3.8) n (%) | Urinary tract infection, AE of any grade, Number (%) of patients (All patients, n = 53): 8 (15.1) n (%) | Vomiting, AE of any grade, Number (%) of patients (All patients, n = 53): 10 (18.9) n (%) | Weight decreased, AE of any grade, Number (%) of patients (All patients, n = 53): 7 (13.2) n (%) | ALT elevated, AE of any grade, Number (%) of patients (All patients, n = 53, first of two ALT elevated lines): 10 (18.9) n (%) | ALT elevated, AE of any grade, Number (%) of patients (All patients, n = 53, second of two ALT elevated lines): 6 (11.3) n (%) | QT [1]: 438 ms | QTc (QT with Bazett correction) [1]: 457 ms | Patients with dose reduction (all 53 patients): 7.5% | Patients with dose reduction and delay (all 53 patients): 7.5% | Patients with missed dose (all 53 patients): 30.2% | Patients with dose modification (all 53 patients, mainly due to adverse events): 45.3% | Patients who discontinued treatment due to drug-unrelated adverse events (all in cohort 1): 5.7% | Patients with Grade 3 or 4 AE (all patients): 67.9% | Patients with Grade 3 or 4 fatigue (all patients): 11.3% | Patients with diarrhea, Grade 1 and 2 (all patients): 88.7% | Patients with fatigue, Grade 1 and 2 (all patients): 56.6% | Patients with onset of diarrhea between days 1–7 (all patients): 75.5% | Patients with transient ALP elevation (all patients): 18.9% | Patients with transient ALT elevation (all patients): 11.3% | Patients with transient AST elevation (all patients): 17% | Patients with treatment-related anemia (all patients): 5.7% | Patients with treatment-related neutropenia (all patients): 5.7% | Patients with visual changes (all patients, mild and transient): 15% | Patients with abdominal pain (all patients, mild to moderate): 37.7% | Patients with nausea (all patients, mild to moderate): 34% | Patients with vomiting (all patients, mild to moderate): 18.9% | Patients with on-treatment SAEs (all patients, none considered treatment-related): 28.3% | Patients with Grade 2 or 3 hyberbilirubinemia (all patients, not considered study drug-related): 7.5% | Patients with Grade 1 or 2 blurred vision (doses of 35 mg/m^2, 114 mg/m^2 and 150 mg/m^2): Three patients | Patients with QTc prolongation (higher dose levels, Cycle 1 Day 1 post-dose): Three patients | Patients with treatment-related visual impairment (mild and transient): Two patients | Deaths during the study (none deemed treatment-related): Three deaths | Patients with QTc changes (not symptomatic, not considered clinically meaningful): 91% | Patients with Grade 1 transient visual impairment (one each at 216 and 259 mg/m^2, possibly related to study drug): 2 patients | QT [2]: 414 ms | QTc [2]: 433 ms
